From patent US12312328B2, “Pyrazoline dihydroquinolones, pharmaceutical compositions, and uses” (Emory University, priority 2013, dated 2025)
Like-named read-outs stand apart in the source and are kept apart here. One block for each molecule: values may come before it.

Key:
[1] = target: T1, GluN2D-containing receptors (Rattus norvegicus, UniProt Q62645); assay: Two-electrode voltage-clamp inhibition of GluN2D-containing NMDA receptors in Xenopus laevis oocytes; assay type: cell-based
T1 construct: expressed in transfected cells; host or cells: Xenopus laevis oocytes
Method: (§1) IC50 values were obtained by fitting the Hill equation to the average composite concentration-effect curves.
(§2) Xenopus laevis oocytes were isolated and maintained as described in Hansen & Traynelis, J Neurosci 2011, 31, 3650-3661. Oocytes were placed in a perfusion chamber with recording solution comprised of (in mM) 90 NaCl, 1 KCl, 0.5 BaCl2, 0.005 EDTA and 10 HEPES, pH adjusted to 7.4 with NaOH at 23° C. The glass electrodes used had tip resistance of 0.5-2.0 MΩ and were filled with 0.3-3.0 M KCl. Compounds were made as 20 mM stock solutions in DMSO and diluted to final concentrations in recording solution (final DMSO was 0.1-0.05% vol/vol). The current recordings were performed using a Warner OC-725B or C amplifier at a holding potential of −40 mV.

[2] = target: T2, GluN2C-containing receptors (Rattus norvegicus, UniProt P35439+Q00961); assay: Two-electrode voltage-clamp inhibition of GluN2C-containing NMDA receptors in Xenopus laevis oocytes; assay type: cell-based
T2 construct: expressed in transfected cells; host or cells: Xenopus laevis oocytes
Method: as §1, §2

[3] = target: T3, GluN2D-containing receptors (Rattus norvegicus, UniProt P35439+Q62645); assay: Two-electrode voltage-clamp inhibition of GluN2D-containing NMDA receptors in Xenopus laevis oocytes; assay type: cell-based; details: GluN2D-containing receptors
T3 construct: expressed in transfected cells; host or cells: Xenopus laevis oocytes
Method: as §1, §2

[4] = system: GluN2C- and GluN2D-containing NMDA receptors; assay: NMDA receptor inhibition and subunit selectivity, GluN2C/GluN2D not told apart; assay type: cell-based
Method: as §1, §2

[5] = target: T4, GluN2C-containing receptors (Rattus norvegicus, UniProt Q00961); assay: Two-electrode voltage-clamp inhibition of GluN2C-containing NMDA receptors in Xenopus laevis oocytes; assay type: cell-based
T4 construct: expressed in transfected cells; host or cells: Xenopus laevis oocytes
Method: as §1, §2

[6] = system: MDR1-MDCK cell monolayers; assay: MDR1-MDCK permeability assay; assay type: in vitro ADME; details: for BBB penetration classification: from Papp and efflux ratio in MDR1-MDCK
Method: The Papp and efflux ratio were calculated as described in the Methods. […] See Wang et al., International Journal of Pharmaceutics, 2005, 288, 349-359.
Cell monolayers were grown to confluence on collagen-coated, microporous, polycarbonate membranes in 12-well Costar Transwell® plates. The permeability assay buffer was Hanks Balanced Salt Solution containing 10 mM HEPES and 15 mM glucose at pH 7.4. The buffer in the receiver chamber also contained 1% bovine serum albumin. The dosing solution concentration in the assay buffer was 5 μM for each compound tested. The cell monolayers were dosed on the apical side (A-to-B) or basolateral side (B-to-A) and incubated at 37° C. with 5% CO2 in a humidified incubator. Samples were taken from the donor and receiver chambers at 120 minutes. Each determination was performed in duplicate. The co-dosed lucifer yellow flux was also measured for each monolayer to ensure no damage was inflicted to the cell monolayers during the flux period. All samples were assayed by LC-MS/MS using electrospray ionization. The apparent permeability (Papp) and percent recovery were calculated as follows. […] Human Liver Microsomal Stability

Plasma stability, human = assay type: in vitro ADME; details: two-hour time-course
Method: (§3) Three analogs, (58) 997-33, (26)997-23 and (64) 997-57 were evaluated for plasma stability as well as aqueous solubility. […] The aqueous solubility of compounds (26)997-23 and (58) 997-33 was evaluated in oocyte recording buffer using nephelometry. […] In order to assess the potential BBB penetration, compounds (26)997-23 and (64)997-57 were selected for evaluation in the MDR1-MDCK permeability assay (FIG. 19). […] The same compounds were also evaluated for metabolic stability using human liver microsomes.

Plasma stability, rat = assay type: in vitro ADME; details: two-hour time-course
Method: as §3

Plasma stability, mouse = assay type: in vitro ADME; details: two-hour time-course
Method: as §3

[7] = GluN2D-containing receptors, read-out: inhibition IC50 for GluN2D

T1 sequence (Q62645 28-1323, other chains not shown): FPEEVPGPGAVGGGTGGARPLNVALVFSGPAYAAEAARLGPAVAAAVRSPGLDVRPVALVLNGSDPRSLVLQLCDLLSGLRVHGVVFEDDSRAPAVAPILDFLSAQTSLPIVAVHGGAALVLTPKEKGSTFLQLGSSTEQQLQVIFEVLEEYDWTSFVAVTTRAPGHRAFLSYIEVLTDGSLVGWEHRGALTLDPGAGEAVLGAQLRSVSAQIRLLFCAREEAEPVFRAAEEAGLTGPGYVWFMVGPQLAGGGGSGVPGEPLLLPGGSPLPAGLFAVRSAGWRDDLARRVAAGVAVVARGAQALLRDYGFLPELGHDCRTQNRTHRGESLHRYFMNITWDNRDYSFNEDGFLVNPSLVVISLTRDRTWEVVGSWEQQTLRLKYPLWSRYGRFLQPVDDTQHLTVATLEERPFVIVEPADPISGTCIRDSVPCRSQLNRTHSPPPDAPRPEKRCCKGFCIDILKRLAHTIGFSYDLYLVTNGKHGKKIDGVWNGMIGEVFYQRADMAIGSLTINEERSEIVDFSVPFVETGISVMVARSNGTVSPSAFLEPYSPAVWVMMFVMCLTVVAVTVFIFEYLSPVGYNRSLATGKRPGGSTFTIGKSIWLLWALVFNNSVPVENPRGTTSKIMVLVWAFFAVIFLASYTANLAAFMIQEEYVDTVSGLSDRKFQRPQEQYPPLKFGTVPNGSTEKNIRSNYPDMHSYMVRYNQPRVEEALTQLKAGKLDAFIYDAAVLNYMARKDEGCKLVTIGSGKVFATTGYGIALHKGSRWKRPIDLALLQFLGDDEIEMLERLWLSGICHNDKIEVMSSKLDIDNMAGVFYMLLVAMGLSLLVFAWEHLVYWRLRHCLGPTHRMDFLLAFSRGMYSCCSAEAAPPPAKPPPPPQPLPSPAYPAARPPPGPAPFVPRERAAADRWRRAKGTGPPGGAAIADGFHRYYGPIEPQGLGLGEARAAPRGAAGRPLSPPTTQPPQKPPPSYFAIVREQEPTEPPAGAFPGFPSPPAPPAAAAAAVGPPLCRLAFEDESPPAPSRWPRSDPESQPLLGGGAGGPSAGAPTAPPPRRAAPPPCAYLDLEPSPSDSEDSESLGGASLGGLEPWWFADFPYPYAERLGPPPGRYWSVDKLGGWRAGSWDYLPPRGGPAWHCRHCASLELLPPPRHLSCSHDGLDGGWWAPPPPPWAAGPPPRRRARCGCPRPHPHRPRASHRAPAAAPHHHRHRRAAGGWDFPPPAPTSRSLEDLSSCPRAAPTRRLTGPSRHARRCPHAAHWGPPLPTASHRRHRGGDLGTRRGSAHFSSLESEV
T3 sequence (Q62645 28-1323, other chains not shown): as above
T2 sequence (Q00961 20-1237, other chains not shown): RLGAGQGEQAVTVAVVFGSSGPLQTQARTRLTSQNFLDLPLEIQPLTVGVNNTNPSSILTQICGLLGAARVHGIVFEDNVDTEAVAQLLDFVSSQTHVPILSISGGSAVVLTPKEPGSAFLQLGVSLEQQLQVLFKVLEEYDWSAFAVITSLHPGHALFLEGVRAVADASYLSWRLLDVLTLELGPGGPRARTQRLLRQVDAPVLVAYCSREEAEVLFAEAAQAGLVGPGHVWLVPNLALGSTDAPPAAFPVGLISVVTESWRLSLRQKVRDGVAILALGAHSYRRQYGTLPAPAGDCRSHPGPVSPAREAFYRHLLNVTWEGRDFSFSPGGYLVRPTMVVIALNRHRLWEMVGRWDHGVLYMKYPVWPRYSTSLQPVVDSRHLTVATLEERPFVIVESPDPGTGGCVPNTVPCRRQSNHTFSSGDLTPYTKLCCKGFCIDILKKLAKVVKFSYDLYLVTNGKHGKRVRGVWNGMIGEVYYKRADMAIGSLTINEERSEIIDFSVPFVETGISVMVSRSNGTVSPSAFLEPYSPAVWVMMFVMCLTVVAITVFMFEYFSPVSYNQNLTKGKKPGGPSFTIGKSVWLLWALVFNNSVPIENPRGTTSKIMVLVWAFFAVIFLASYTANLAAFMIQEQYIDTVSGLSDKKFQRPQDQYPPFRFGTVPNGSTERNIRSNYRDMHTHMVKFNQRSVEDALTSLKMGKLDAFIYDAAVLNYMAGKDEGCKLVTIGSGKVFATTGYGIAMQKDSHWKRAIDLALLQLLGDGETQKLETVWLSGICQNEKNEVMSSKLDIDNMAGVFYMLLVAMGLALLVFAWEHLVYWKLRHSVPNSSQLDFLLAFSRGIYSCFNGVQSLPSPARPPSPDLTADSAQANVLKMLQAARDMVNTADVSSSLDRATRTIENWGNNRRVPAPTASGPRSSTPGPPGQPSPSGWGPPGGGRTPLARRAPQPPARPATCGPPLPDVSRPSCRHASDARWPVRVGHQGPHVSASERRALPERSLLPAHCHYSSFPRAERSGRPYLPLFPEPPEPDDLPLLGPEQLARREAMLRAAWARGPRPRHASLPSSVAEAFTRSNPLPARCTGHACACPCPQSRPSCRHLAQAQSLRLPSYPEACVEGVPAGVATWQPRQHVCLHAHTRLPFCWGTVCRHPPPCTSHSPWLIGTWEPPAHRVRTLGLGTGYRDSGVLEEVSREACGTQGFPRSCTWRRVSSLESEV
T4 sequence (Q00961 20-1237, other chains not shown): as above

potency at GluN2D-containing receptors, in words [1]: submicromolar
SMILES: O=C(O)CCC(=O)N1N=C(c2c(-c3ccc(F)c(Cl)c3)c3ccccc3[nH]c2=O)CC1c1ccc(Cl)cc1 (stereo not shown) [Compound 997-34, 4-(3-(4-(3-Chloro-4-fluorophenyl)-2-oxo-1,2-dihydroquinolin-3-yl)-5-(4-chlorophenyl)-4,5-dihydro-1H-pyrazol-1-yl)-4-oxobutanoic acid]

IC50 [2]: 1600 nM | IC50 [3]: 800 nM
SMILES: O=C(CC(F)(F)CO)N1N=C(c2c(-c3ccc(Cl)cc3)c3ccccc3[nH]c2=O)CC1c1ccc(Cl)cc1 (stereo not shown) [4-(4-chlorophenyl)-3-(5-(4-chlorophenyl)-1-(3,3-difluoro-4-hydroxybutanoyl)-4,5-dihydro-1H-pyrazol-3-yl)quinolin-2(1H)-one]

IC50 [2]: 1400 nM | IC50 [3]: 600 nM
SMILES: O=C(CC(F)(F)CO)N1N=C(c2c(-c3ccc(Cl)cc3)c3ccccc3[nH]c2=O)C[C@H]1c1ccc(Cl)cc1 [(S)-4-(4-chlorophenyl)-3-(5-(4-chlorophenyl)-1-(3,3-difluoro-4-hydroxybutanoyl)-4,5-dihydro-1H-pyrazol-3-yl)quinolin-2(1H)-one]

potency at GluN2D-containing receptors, in words [1]: submicromolar
SMILES: O=C(O)CCC(=O)N1N=C(c2c(-c3ccc(Cl)c(Cl)c3)c3ccccc3[nH]c2=O)CC1c1ccc(Cl)cc1 (stereo not shown) [Compound 997-41, 4-(5-(4-Chlorophenyl)-3-(4-(3,4-dichlorophenyl)-2-oxo-1,2-dihydroquinolin-3-yl)-4,5-dihydro-1H-pyrazol-1-yl)-4-oxobutanoic acid]

potency at GluN2D-containing receptors, in words [1]: submicromolar
SMILES: O=C(O)CCC(=O)N1N=C(c2c(-c3cc(F)cc(F)c3)c3ccccc3[nH]c2=O)CC1c1ccc(Cl)cc1 (stereo not shown) [Compound 997-35, 4-(5-(4-Chlorophenyl)-3-(4-(3,5-difluorophenyl)-2-oxo-1,2-dihydroquinolin-3-yl)-4,5-dihydro-1H-pyrazol-1-yl)-4-oxobutanoic acid]

SMILES: COC(=O)CCC(=O)N1N=C(c2c(-c3ccccc3)c3cc(Cl)ccc3[nH]c2=O)CC1c1ccc(Br)cc1 (stereo not shown) [Compound 997-11, Methyl 4-(5-(4-bromophenyl)-3-(6-chloro-2-oxo-4-phenyl-1,2-dihydroquinolin-3-yl)-4,5-dihydro-1H-pyrazol-1-yl)-4-oxobutanoate]
activity at NMDA receptors, in words [4]: inactive

IC50 [5]: 710 nM | selectivity for GluN2D-containing over GluN2A-containing receptors [1]: 33 fold | selectivity for GluN2D-containing over GluN2B-containing receptors [1]: 67 fold | IC50 [1, 7]: 390 nM
SMILES: O=C(O)CCC(=O)N1N=C(c2c(-c3ccc(Br)cc3)c3ccccc3[nH]c2=O)CC1c1ccc(Br)cc1 (stereo not shown) [Compound 997-7, 4-(5-(4-Bromophenyl)-3-(4-(4-bromophenyl)-2-oxo-1,2-dihydroquinolin-3-yl)-4,5-dihydro-1H-pyrazol-1-yl)-4-oxobutanoic acid]

IC50 [2]: 8500 nM | IC50 [3]: 3600 nM
SMILES: O=C(CC(F)(F)CO)N1N=C(c2c(-c3ccc(Cl)cc3)c3ccccc3[nH]c2=O)C[C@@H]1c1ccc(Cl)cc1 [(R)-4-(4-chlorophenyl)-3-(5-(4-chlorophenyl)-1-(3,3-difluoro-4-hydroxybutanoyl)-4,5-dihydro-1H-pyrazol-3-yl)quinolin-2(1H)-one]

IC50 [2]: 15000 nM | IC50 [3]: 8100 nM
SMILES: O=C(O)CCC(=O)N1N=C(c2c(-c3ccncc3)c3ccccc3[nH]c2=O)CC1c1ccc(Cl)cc1 (stereo not shown) [4-(5-(4-chlorophenyl)-3-(2-oxo-4-(pyridin-4-yl)-1,2-dihydroquinolin-3-yl)-4,5-dihydro-1H-pyrazol-1-yl)-4-oxobutanoic acid]

Papp A-B ([6]; MDR1-MDCK, 5 μM, 120 minutes): 3.88 ×10⁻⁶ cm/s | Papp B-A ([6]; MDR1-MDCK, 5 μM, 120 minutes): 9.52 ×10⁻⁶ cm/s | BBB penetration classification [6]: highly brain penetrable
SMILES: O=C(CCCF)N1N=C(c2c(-c3ccc(Cl)cc3)c3ccccc3[nH]c2=O)CC1c1ccc(Cl)cc1 (stereo not shown) [Compound 997-64, 4-(4-Chlorophenyl)-3-(5-(4-chlorophenyl)-1-(4-fluorobutanoyl)-4,5-dihydro-1H-pyrazol-3-yl)quinolin-2(1H)-one]

plasma stability (Plasma stability, human): minimal degradation | plasma stability (Plasma stability, rat): minimal degradation | plasma stability (Plasma stability, mouse): minimal degradation | Papp A-B ([6]; MDR1-MDCK, 5 μM, 120 minutes): 2.46 ×10⁻⁶ cm/s | BBB penetration classification [6]: low BBB potential
SMILES: O=C(CCCO)N1N=C(c2c(-c3ccc(Cl)cc3)c3ccccc3[nH]c2=O)CC1c1ccc(Cl)cc1 (stereo not shown) [Compound 997-57, 4-(4-Chlorophenyl)-3-(5-(4-chlorophenyl)-1-(4-hydroxybutanoyl)-4,5-dihydro-1H-pyrazol-3-yl)quinolin-2(1H)-one]
selectivity over GluN2A-containing receptors ([4]; activity at GluN2C- and GluN2D-containing receptors versus GluN2A): 90 fold

SMILES: O=C(O)CCC(=O)N1N=C(c2c(-c3ccccc3)c3cc(Cl)ccc3[nH]c2=O)CC1c1ccc(C(=O)O)cc1 (stereo not shown) [Compound 997-5, 4-(1-(3-Carboxypropanoyl)-3-(6-chloro-2-oxo-4-phenyl-1,2-dihydroquinolin-3-yl)-4,5-dihydro-1H-pyrazol-5-yl)benzoic acid]
activity at NMDA receptors, in words [4]: no activity

SMILES: COC(=O)/C=C/C(=O)N1N=C(c2c(-c3ccc(Br)cc3)c3ccccc3[nH]c2=O)CC1c1ccc(Cl)cc1 (stereo not shown) [Compound 997-31, (E)-Methyl 4-(3-(4-(4-bromophenyl)-2-oxo-1,2-dihydroquinolin-3-yl)-5-(4-chlorophenyl)-4,5-dihydro-1H-pyrazol-1-yl)-4-oxobut-2-enoate]
activity at NMDA receptors, in words [4]: inactive

IC50 [5]: 3000 nM | IC50 [1, 7]: 1700 nM
SMILES: O=C(O)CCCN1N=C(c2c(-c3ccc(Cl)cc3)c3ccccc3[nH]c2=O)CC1c1ccc(Cl)cc1 (stereo not shown) [Compound 997-63, 4-(5-(4-Chlorophenyl)-3-(4-(4-chlorophenyl)-2-oxo-1,2-dihydroquinolin-3-yl)-4,5-dihydro-1H-pyrazol-1-yl)butanoic acid]

IC50 [1, 7]: 4100 nM
SMILES: O=C(O)CCC(=O)N1N=C(c2c(-c3ccccc3)c3cc(Cl)ccc3[nH]c2=O)CC1c1ccc(C(F)(F)F)cc1 (stereo not shown) [Compound 997-8, 4-(3-(6-Chloro-2-oxo-4-phenyl-1,2-dihydroquinolin-3-yl)-5-(4-(trifluoromethyl)phenyl)-4,5-dihydro-1H-pyrazol-1-yl)-4-oxobutanoic acid]

IC50 ([1]; subunit inferred, GluN2D by context of b229, read-out: IC50 (potency, FIG. 10)): 32000 nM
SMILES: COC(=O)c1ccc(C2CC(c3c(-c4ccccc4)c4cc(Cl)ccc4[nH]c3=O)=NN2C(=O)CCC(=O)O)cc1 (stereo not shown) [Compound 997-6, 4-(3-(6-Chloro-2-oxo-4-phenyl-1,2-dihydroquinolin-3-yl)-5-(4-(methoxycarbonyl)phenyl)-4,5-dihydro-1H-pyrazol-1-yl)-4-oxobutanoic acid]

IC50 [2]: 600 nM | IC50 [3]: 500 nM
SMILES: O=C(CC(F)(F)C(=O)O)N1N=C(c2c(-c3cccc(F)c3)c3ccccc3[nH]c2=O)CC1c1ccc(Cl)cc1 (stereo not shown) [4-(5-(4-chlorophenyl)-3-(4-(3-fluorophenyl)-2-oxo-1,2-dihydroquinolin-3-yl)-4,5-dihydro-1H-pyrazol-1-yl)-2,2-difluoro-4-oxobutanoic acid]

potency at GluN2D-containing receptors, in words [1]: submicromolar
SMILES: O=C(O)CCC(=O)N1N=C(c2c(-c3cc(Cl)cc(Cl)c3)c3ccccc3[nH]c2=O)CC1c1ccc(Cl)cc1 (stereo not shown) [Compound 997-37]

IC50 [2]: 390 nM | IC50 [3]: 50 nM
SMILES: O=C(O)CC(F)(F)C(=O)N1N=C(c2c(-c3ccc(Cl)cc3)c3ccccc3[nH]c2=O)CC1c1ccc(Cl)cc1 (stereo not shown) [4-(5-(4-chlorophenyl)-3-(4-(4-chlorophenyl)-2-oxo-1,2-dihydroquinolin-3-yl)-4,5-dihydro-1H-pyrazol-1-yl)-3,3-difluoro-4-oxobutanoic acid]

potency at GluN2D-containing receptors, in words [1]: submicromolar
SMILES: O=C(O)CCC(=O)N1N=C(c2c(-c3ccc(F)c(F)c3)c3ccccc3[nH]c2=O)CC1c1ccc(Cl)cc1 (stereo not shown) [Compound 997-42, 4-(5-(4-Chlorophenyl)-3-(4-(3,4-difluorophenyl)-2-oxo-1,2-dihydroquinolin-3-yl)-4,5-dihydro-1H-pyrazol-1-yl)-4-oxobutanoic acid]
